Laboratory results reported in US20240180841A1, “ENTERIC TABLET CONTAINING DIMETHYL FUMARATE” (CURACLE CO., LTD., priority 2019, published 2024).
Structures can show the parent of a compound that is named as a salt.

Assay: Weight loss rate at 60° C. for 2 weeks (sublimation)
Type: physicochemical
Details: drying and sublimation
Description: Dimethyl fumarate has a property of being lost by sublimation depending on the storage temperature. Accordingly, in order to confirm the degree of weight loss according to the coating drying temperature, the degree of weight loss was repeatedly evaluated for 2 weeks at a temperature of 60° C. for dimethyl fumarate and a mixture thereof. At this time, the mixture of dimethyl fumarate was a mixture in which dimethyl fumarate and other pharmaceutically acceptable additives were mixed.

SMILES: COC(=O)/C=C/C(=O)OC [dimethyl fumarate, Dimethyl fumarate]
- Weight loss in words: continued to lose weight
